Source: patent US20230324373A1, “PYRUVIC ACID OPTICAL PROBE, PREPARATION METHOD THEREFOR, AND APPLICATION THEREOF” (East China University of Science and Technology, priority 2020, published 2023)

Columns and labels:
[1] = specificity of purified pyruvate optical sensors; type: biochemical; conditions: purified sensor
[2] = titration curve of pyruvate optical sensor (concentration gradient pyruvate detection); type: binding; conditions: for change of the ratio of fluorescence intensity at 528 nm after excitation at 420 nm and at 485 nm: pyruvate concentration gradient; for Kd: ratio of fluorescence at 528 nm, excitation 420 nm and 485 nm, read-out: Kd (binding constant)
Protocol: 6. Take 100 μl of 1 μM protein solution, incubate at 37° C. for 5 minutes, add pyruvate for titration, and measure the fluorescence intensity of the protein emitted at 528 nm after fluorescence excitation at 485 nm. The fluorescence excitation and emission measurement of the samples were completed by a multifunctional fluorescence microplate reader.

[3] = fluorescence spectra of purified sensor treated with 0 mM and 10 mM pyruvate; type: biochemical; conditions: 10 minutes
Protocol: 7. Take 100 μl of 1 μM protein solution, incubate at 37° C. for 5 minutes, add pyruvate, and measure the absorption and fluorescence spectra of the protein. The determination of the absorption spectrum and fluorescence spectrum of the sample is completed by a spectrophotometer and a fluorescence spectrophotometer.
Exemplarily, after the purified pyruvate optical sensor PdhR(96-254)-192/194-M194V-cpYFP was treated with 0 mM and 10 mM pyruvate for 10 minutes, respectively, the fluorescence spectrum was detected using a fluorescence spectrophotometer.
Determination of excitation spectra: Excitation spectra were recorded with an excitation range of 350 nm to 500 nm and an emission wavelength of 530 nm, with readings every 5 nm.
Determination of emission spectra: excitation spectra were recorded with an fixed excitation wavelength of 420 nm and 490 nm and an emission range of 505-600 nm, read every 5 nm.

Row | Substance | Kd [2] | specificity [1] | change of the ratio of fluorescence intensity at 528 nm after excitation at 420 nm and at 485 nm [2] | fluorescence intensity excited at 420 nm relative to 0 mM pyruvate [3] | fluorescence intensity excited at 490 nm relative to 0 mM pyruvate [3]
1 | 192/194-M194V: cpYFP at 192/194 of PdhR(96-254), mutation M194V (family SEQ ID NO: 22; coding sequence SEQ ID NO: 31) | 475 µM | good specificity | 9.7 times | 0.6 times | 5.8 times
2 | 192/194-M194V-S190E/R191N/R192D: cpYFP at 192/194 of PdhR(96-254), mutations M194V/S190E/R191N/R192D | 1070 µM | good specificity | 13.1 times | – | –
3 | 192/195: optical sensor with cpYFP inserted at site 192/195 of PdhR(96-254) | 19900 µM | – | 8.3 times | – | –
4 | 141/143: optical sensor with cpYFP inserted at site 141/143 of PdhR(96-254) | 28 µM | good specificity | 2.0 times | – | –
5 | PdhR(96-254)-192/194-M194V/S190D/R191Y/R192T-cpYFP: cpYFP at 192/194 of PdhR(96-254), mutations M194V/S190D/R191Y/R192T | – | good specificity | – | – | –
6 | 141/143-S190P/R191H/R192P: cpYFP at 141/143 of PdhR(96-254), mutations S190P/R191H/R192P | 84 µM | – | 3.2 times | – | –

Continued, in another order:

Row | Kd [2] | Substance | specificity [1] | change of the ratio of fluorescence intensity at 528 nm after excitation at 420 nm and at 485 nm [2] | fluorescence intensity excited at 420 nm relative to 0 mM pyruvate [3] | fluorescence intensity excited at 490 nm relative to 0 mM pyruvate [3]
7 | 158 µM | 141/143-S190R/R191S/R192P: cpYFP at 141/143 of PdhR(96-254), mutations S190R/R191S/R192P | – | 3.1 times | – | –
8 | 186 µM | 141/143-S190T/R191Q/R192E: cpYFP at 141/143 of PdhR(96-254), mutations S190T/R191Q/R192E | – | 2.7 times | – | –
9 | 164 µM | 141/143-R191S/R192T: cpYFP at 141/143 of PdhR(96-254), mutations R191S/R192T | – | 3.9 times | – | –
10 | 185 µM | 141/143-S 190L/R191V: cpYFP at 141/143 of PdhR(96-254), mutations S190L/R191V | – | 4.2 times | – | –
